Results taken from ChEMBL document CHEMBL6121063, “Identification of a Potent and Selective CDK9 Degrader as a Targeted Therapeutic Option for the Treatment of Small-Cell Lung Cancer” (J Med Chem, 2025).

Columns and labels:
[1] = tested on: NCI-H446; experiment: Antiproliferative activity against human NCI-H446 cells assessed as inhibition of cell growth incubated for 72 hrs by CCK8 assay; type: functional, cell-based; conditions: NCI-H446, 72 h
[2] = target: CDK3/Cyclin E (Homo sapiens) (UniProt P24864+Q00526); experiment: Inhibition of CDK3/cyclin E1 (unknown origin) at 10 nM relative to control; type: protein-complex assay
Sequence of CDK3/Cyclin E (Homo sapiens) (P24864 whole entry, looked up): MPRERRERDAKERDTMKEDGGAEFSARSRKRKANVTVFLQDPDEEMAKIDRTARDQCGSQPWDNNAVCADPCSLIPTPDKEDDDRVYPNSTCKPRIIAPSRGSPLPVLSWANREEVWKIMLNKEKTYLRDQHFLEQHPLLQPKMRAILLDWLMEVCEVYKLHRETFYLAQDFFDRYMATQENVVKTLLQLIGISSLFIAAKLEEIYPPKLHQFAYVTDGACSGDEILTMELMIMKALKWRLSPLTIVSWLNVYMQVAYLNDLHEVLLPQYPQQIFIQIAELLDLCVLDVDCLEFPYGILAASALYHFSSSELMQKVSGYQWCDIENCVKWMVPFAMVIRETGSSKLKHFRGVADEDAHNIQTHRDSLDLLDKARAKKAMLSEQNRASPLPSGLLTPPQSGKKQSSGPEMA
Sequence of CDK3/Cyclin E (Homo sapiens) (Q00526 whole entry, looked up): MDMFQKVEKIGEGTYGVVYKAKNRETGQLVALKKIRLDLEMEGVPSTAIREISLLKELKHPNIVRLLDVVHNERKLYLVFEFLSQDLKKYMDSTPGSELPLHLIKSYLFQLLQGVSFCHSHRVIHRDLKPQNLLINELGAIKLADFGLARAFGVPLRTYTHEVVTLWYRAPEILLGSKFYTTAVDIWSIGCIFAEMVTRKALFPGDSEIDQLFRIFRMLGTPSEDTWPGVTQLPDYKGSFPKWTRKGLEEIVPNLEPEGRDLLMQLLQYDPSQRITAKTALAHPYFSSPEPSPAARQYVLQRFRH

[3] = tested on: NCI-H69; experiment: Induction of apoptosis in human NCI-H69 cells assessed as decrease in MCL-1 expression incubated for 36 hrs by Western blot analysis; type: functional, cell-based
[4] = target: Cyclin-dependent kinase 4/cyclin D1 (Homo sapiens) (UniProt P11802+P24385); experiment: Inhibition of CDK4/cyclin D1 (unknown origin) at 10 nM relative to control; type: protein-complex assay
[5] = target: CDK9/cyclin T1 (Homo sapiens) (UniProt O60563+P50750); experiment: Inhibition of CDK9/Cyclin T1 (unknown origin) at 10 nM relative to control; type: protein-complex assay
[6] = target: CDK6/cyclin D1 (Homo sapiens) (UniProt P24385+Q00534); experiment: Inhibition of CDK6/cyclin D1 (unknown origin) at 10 nM relative to control; type: protein-complex assay
[7] = tested on: NCI-H69; experiment: Induction of apoptosis in human NCI-H69 cells assessed as decrease in BCL-2 expression incubated for 36 hrs by Western blot analysis; type: functional, cell-based
[8] = tested on: NCI-H69; experiment: Induction of apoptosis in human NCI-H69 cells assessed as increase in cleaved caspase-3 level incubated for 36 hrs by Western blot analysis; type: functional, cell-based
[9] = target: Cyclin-dependent kinase 13/Cyclin-K (Homo sapiens) (UniProt Q14004+O75909); experiment: Inhibition of CDK13/Cyclin K (unknown origin) at 10 nM relative to control; type: protein-complex assay
[10] = tested on: NCI-H69; experiment: Induction of apoptosis in human NCI-H69 cells assessed as increase in p53 level incubated for 36 hrs by Western blot analysis; type: functional, cell-based
[11] = target: CDK4/Cyclin D3 (Homo sapiens) (UniProt P11802+P30281); experiment: Inhibition of CDK4/cyclin D3 (unknown origin) at 10 nM relative to control; type: protein-complex assay
[12] = target: CDK6/cyclin D3 (Homo sapiens) (UniProt P30281+Q00534); experiment: Inhibition of CDK6/cyclin D3 (unknown origin) at 10 nM relative to control; type: protein-complex assay
[13] = tested on: NCI-H69; experiment: Antiproliferative activity against human NCI-H69 cells assessed as inhibition of cell growth incubated for 72 hrs by CCK8 assay; type: functional, cell-based; conditions: NCI-H69, 72 h
[14] = target: CDK12/Cyclin K (Homo sapiens) (UniProt O75909+Q9NYV4); experiment: Inhibition of CDK12/Cyclin K (unknown origin) at 10 nM relative to control; type: protein-complex assay
Sequence of CDK12/Cyclin K (Homo sapiens) (O75909 whole entry, looked up): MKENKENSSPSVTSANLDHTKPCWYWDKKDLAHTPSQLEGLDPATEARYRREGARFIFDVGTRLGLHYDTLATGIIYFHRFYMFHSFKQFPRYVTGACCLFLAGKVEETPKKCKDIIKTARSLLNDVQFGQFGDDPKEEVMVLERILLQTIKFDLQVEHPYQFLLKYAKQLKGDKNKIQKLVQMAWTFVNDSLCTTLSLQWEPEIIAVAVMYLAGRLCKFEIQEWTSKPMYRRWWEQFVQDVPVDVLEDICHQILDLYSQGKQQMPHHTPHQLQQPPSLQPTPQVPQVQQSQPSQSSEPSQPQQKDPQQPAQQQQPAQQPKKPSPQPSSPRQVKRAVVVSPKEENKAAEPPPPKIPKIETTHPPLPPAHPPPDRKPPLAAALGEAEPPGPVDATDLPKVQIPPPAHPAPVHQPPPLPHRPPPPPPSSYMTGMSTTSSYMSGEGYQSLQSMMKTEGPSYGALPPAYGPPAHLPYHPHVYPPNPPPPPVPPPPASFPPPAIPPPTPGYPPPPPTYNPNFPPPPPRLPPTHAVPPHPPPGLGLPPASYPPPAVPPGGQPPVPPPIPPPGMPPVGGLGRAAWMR
Sequence of CDK12/Cyclin K (Homo sapiens) (Q9NYV4 whole entry, looked up): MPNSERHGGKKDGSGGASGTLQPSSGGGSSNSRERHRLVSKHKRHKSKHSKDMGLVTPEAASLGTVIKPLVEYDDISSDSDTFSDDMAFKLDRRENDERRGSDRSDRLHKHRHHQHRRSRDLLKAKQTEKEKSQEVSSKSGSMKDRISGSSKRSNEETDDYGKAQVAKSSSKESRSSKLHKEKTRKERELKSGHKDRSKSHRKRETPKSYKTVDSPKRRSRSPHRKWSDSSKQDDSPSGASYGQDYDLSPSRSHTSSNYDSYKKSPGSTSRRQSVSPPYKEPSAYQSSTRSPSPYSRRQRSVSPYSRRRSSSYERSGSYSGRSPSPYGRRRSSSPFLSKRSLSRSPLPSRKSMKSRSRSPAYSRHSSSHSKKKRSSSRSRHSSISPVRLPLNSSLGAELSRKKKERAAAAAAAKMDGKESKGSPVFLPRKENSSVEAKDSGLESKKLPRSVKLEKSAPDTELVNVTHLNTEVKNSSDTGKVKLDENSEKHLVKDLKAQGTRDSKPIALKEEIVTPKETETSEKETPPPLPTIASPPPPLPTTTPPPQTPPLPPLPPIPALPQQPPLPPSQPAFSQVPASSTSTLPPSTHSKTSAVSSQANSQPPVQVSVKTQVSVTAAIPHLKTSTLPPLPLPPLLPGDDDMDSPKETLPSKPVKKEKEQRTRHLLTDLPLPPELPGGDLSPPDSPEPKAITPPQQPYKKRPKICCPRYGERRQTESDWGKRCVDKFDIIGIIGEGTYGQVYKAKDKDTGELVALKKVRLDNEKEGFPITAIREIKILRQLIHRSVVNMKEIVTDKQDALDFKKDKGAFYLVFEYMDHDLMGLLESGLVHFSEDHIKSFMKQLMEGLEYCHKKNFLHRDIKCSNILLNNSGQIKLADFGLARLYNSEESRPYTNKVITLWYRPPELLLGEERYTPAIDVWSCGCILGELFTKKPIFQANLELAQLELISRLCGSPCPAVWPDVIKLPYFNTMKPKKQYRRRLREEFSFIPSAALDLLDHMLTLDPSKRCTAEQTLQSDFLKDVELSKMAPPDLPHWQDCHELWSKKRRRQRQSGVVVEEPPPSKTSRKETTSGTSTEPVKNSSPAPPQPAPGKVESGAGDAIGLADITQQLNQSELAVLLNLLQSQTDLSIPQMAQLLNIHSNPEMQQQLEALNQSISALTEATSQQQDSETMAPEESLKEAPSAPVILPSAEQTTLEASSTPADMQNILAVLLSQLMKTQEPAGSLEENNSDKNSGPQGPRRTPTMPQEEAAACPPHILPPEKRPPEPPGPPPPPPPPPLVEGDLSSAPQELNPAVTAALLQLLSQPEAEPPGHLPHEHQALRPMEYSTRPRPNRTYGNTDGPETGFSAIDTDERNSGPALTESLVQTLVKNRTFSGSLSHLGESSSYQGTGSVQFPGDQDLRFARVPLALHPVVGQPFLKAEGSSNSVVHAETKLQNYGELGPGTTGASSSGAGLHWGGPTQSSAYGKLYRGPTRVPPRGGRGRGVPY

[15] = target: T1, Cyclin-dependent kinase 5/CDK5 activator 1 (Homo sapiens) (UniProt Q00535+Q15078); experiment: Inhibition of CDK5/p35NCK (unknown origin) at 10 nM relative to control; type: protein-complex assay
T1 sequence (Q00535 whole entry): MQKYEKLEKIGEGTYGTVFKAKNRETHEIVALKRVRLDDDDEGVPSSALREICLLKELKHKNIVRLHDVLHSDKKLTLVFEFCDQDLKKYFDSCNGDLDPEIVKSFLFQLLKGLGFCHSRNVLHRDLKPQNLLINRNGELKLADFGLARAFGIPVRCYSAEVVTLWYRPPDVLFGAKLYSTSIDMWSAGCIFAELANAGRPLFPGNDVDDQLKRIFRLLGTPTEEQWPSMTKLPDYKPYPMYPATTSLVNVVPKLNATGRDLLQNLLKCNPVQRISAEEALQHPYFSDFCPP
T1 sequence (Q15078 99-307 partner limits assumed): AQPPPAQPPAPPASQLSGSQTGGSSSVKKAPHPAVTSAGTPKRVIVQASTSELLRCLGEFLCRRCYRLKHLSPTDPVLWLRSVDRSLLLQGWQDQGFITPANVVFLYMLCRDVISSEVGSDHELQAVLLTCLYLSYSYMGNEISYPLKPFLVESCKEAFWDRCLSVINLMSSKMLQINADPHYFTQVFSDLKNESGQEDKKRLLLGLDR

[16] = tested on: NCI-H69; experiment: Induction of apoptosis in human NCI-H69 cells assessed as increase in cleaved PARP level incubated for 36 hrs by Western blot analysis; type: functional, cell-based
[17] = target: Cyclin-dependent kinase 1/cyclin B1 (Homo sapiens) (UniProt P06493+P14635); experiment: Inhibition of CDK1/cyclin B1 (unknown origin) at 10 nM relative to control; type: protein-complex assay
Sequence of Cyclin-dependent kinase 1/cyclin B1 (Homo sapiens) (P06493 whole entry, looked up): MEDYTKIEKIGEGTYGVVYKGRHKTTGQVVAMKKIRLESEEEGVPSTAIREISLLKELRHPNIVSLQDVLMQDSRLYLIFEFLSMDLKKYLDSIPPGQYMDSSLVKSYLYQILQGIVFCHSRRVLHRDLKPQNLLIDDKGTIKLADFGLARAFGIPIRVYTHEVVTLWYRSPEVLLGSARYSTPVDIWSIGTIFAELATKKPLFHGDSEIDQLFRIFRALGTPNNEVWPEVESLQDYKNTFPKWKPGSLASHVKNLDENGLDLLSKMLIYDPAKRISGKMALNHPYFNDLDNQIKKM
Sequence of Cyclin-dependent kinase 1/cyclin B1 (Homo sapiens) (P14635 whole entry, looked up): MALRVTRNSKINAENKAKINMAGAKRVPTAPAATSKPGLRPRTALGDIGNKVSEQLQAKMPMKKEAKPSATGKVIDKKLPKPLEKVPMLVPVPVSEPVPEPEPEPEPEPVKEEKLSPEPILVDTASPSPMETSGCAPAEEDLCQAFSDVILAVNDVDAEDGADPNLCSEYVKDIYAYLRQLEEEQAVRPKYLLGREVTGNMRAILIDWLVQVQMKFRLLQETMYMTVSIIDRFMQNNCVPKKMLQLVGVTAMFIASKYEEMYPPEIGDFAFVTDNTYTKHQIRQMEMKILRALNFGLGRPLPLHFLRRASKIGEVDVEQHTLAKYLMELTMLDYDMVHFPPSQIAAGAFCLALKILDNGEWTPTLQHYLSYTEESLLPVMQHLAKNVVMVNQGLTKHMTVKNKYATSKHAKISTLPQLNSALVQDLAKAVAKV

[18] = target: T1, Cyclin-dependent kinase 5/CDK5 activator 1 (Homo sapiens); experiment: Inhibition of CDK5/p25NCK (unknown origin) at 10 nM relative to control; type: protein-complex assay

- IC50 [1]: 173 nM
- inhibition [2]: 16%
- inhibition [4]: 36%
- inhibition [5]: 79%
- inhibition [6]: 34%
- inhibition [9]: 36%
- inhibition [11]: 47%
- inhibition [12]: 20%
- IC50 [13]: 186 nM
- inhibition [14]: 29%
- inhibition [15]: 20%
- inhibition [17]: 31%
- inhibition [18]: 26%
SMILES: O=C(NC1CCNCC1)c1n[nH]cc1NC(=O)c1c(Cl)cccc1Cl [AT-7519]
- Activity [3]: Dose-dependent-effect
- Activity [7]: Dose-dependent-effect
- Activity [8]: Dose-dependent-effect
- Activity [10]: Dose-dependent-effect
- Activity [16]: Dose-dependent-effect
